# Assay results from patent publication US20260072027A1, “Peptides And Method” (Queen Mary University of London, priority 2022, published 2026).
# Where no end group is shown, it is not given here.
# Test system: serum IgG autoantibodies
# Assay: ELISA for autoantibody detection: serum antibody binding to native and oxPTM insulin peptides
# Set-up: species or system human
# Conditions: for % binders, Healthy controls / Mean ± SEM (absorbance, OD), Healthy controls / % binders, Type 1 diabetes: Study cohort 1; for % binders, Healthy controls / Mean ± SEM (absorbance, OD), Healthy controls / % binders, Type 1 diabetes / Mean ± SEM (absorbance, OD), Type 1 diabetes: in house modifications; for % binders, Type 1 diabetes: cut-off = mean of healthy controls to Nt-INSP plus 3 SEM; for Mean ± SEM (absorbance, OD), Type 1 diabetes: Study cohort 1 sera; for Antibody reactivity of serum samples (in words): ELISA; for type 1 diabetes binders (IgG autoantibody reactivity): Study cohort 2, N = 18
# Procedure: ELISA for autoantibody detection. The ELISA analysis of Nt-INS and oxPTM-INS autoantibodies was performed as previously described [18](detailed in ESM methods, ELISA assay for antibody detection).
# Statistical analyses. Statistical analyses were performed using Prism Software 9.0 (GraphPad, San Diego, CA, USA). Cut-off points of positivity (binders) in the antibody ELISA for each peptide were defined by the mean of optical absorbance (O.D) of healthy controls to the corresponding Nt-INSP plus three times the standard error of the mean (SEM). Specificity and sensitivity were evaluated by receiver operating characteristic (ROC) curve analysis. Area under the curve (AUC) is reported as absolute value and was tested for equality according to DeLong et al. Differences in antibody levels and T-cell stimulation indices (SI) between groups were tested by the One way ANOVA or Student's t-tests as appropriate. Correlation analyses were tested by Pearson or Spearman's test, as appropriate. Categorical analyses were performed by Chi-square or McNemar's tests, as appropriate. For each set of experiments, p values were adjusted for multiple comparison using the Holm-Sidak's test. Hierarchical cluster and Principal Component Analysis (PCA) was done using Clustvis software (https://biit.cs.ut.ee/clustvis/) and Prism Software 9.0, respectively.
# Antibody reactivity of type 1 diabetes serum against the candidate oxPTM-INSP. Identified peptide candidates were synthesised and exposed to either HOCl or ^●OH to generate oxPTM-INSPs that were first assessed by TOF-MS/ES+TIC to confirm modification (FIG. 17). Antibody response against native INSPs (Nt-INSPs) and oxPTM-INSPs was evaluated by ELISA using sera from Study cohort 1.
# ESM Methods ELISA assay for antibody detection. The ELISA analysis of native (Nt-INS) and modified insulin (oxPTM-INS) was performed as previously described. Briefly, the ELISA plate was coated overnight at 4° C. with 100 μl per well of modified or native insulin in 0.05 M carbonate/bicarbonate buffer pH 9.6 at 10 μg/ml. The next day, the plates were washed 3 times with 0.1% Tween PBS, followed by blocking for 2 hours at room temperature with 200 μl per well of 5% BSA in 0.1% Tween PBS. After washing, 100 μl of 1:200-diluted serum samples in 5% BSA-0.1% Tween PBS were added for additional 2 hours incubation. ELISA plates were then washed 3 times with 0.1% Tween PBS followed by probing with anti-human IgG horse radish peroxidase conjugated (HRP, Sigma) at 1:1,000 dilution in 5% BSA-0.1% Tween PBS for another 1.5 hours incubation. The ELISA plates were washed, and 100 μg/ml TMB substrate in 0.1M sodium acetate pH 6.0 plus 2 μl/10 ml of H2O2, were added. Subsequently, the reaction was stopped with 20% v/v sulphuric acid. The optical density (O.D.) was measured at 450 nm using a GENios plate reader and Magellan software (TECAN, Dorset, UK).
Substance,"% binders, Healthy controls","Mean ± SEM (absorbance, OD), Healthy controls","% binders, Type 1 diabetes","Mean ± SEM (absorbance, OD), Type 1 diabetes",Antibody reactivity of serum samples (in words),other results
"INSP-4 oxPTM-•OH: INSP-4 peptide oxidised in house by hydroxyl radical (LVEALYLVCGERGFFYTPKT; also: oxidised by hydroxyl radical, modified residues not defined)",27%,0.344 ± 0.022,58%,0.539 ± 0.068,–,–
"INSP-6 oxPTM-HOCI: INSP-6 peptide oxidised in house by HOCl (ERGFFYTPKT; not fully specified (N-terminus); also: oxidised by HOCl, modified residues not defined)",25%,0.312 ± 0.019,43%,0.391 ± 0.013,–,–
"INSP-6 oxPTM-•OH: INSP-6 peptide oxidised in house by hydroxyl radical (ERGFFYTPKT; not fully specified (N-terminus); also: oxidised by hydroxyl radical, modified residues not defined)",12%,0.280 ± 0.020,83%,0.461 ± 0.013,–,"Mean ± SEM (absorbance, OD), Type 1 diabetes (listed as ●OH-modified oxPTM-INSP-6): 0.461±0.013"
LVEALYLVCG,–,–,–,–,No reactivity,–
"LVEALYLVCGER [INSP-2, insulin B:11-22 peptide]",–,–,–,–,No significant reactivity,–
Nt-INS: native human recombinant insulin,–,–,–,–,–,type 1 diabetes binders (IgG autoantibody reactivity): 33.3%
"YLVCGERGFF [INSP-1, insulin B:16-25 peptide]",–,–,–,–,No significant reactivity,–
^●OH-INS: insulin modified by hydroxyl radical,–,–,–,–,–,type 1 diabetes binders (IgG autoantibody reactivity): 50%
